Where a SMILES comes first, the peptide text is derived from it. [ ]: non-standard residue; d: D form. pGlu = O=C1CC[C@@H](C(=O)O)N1; Thz = O=C(O)[C@@H]1CSCN1
Key:
Vasopressin V1a receptor = Vasopressin V1a receptor (Homo sapiens, UniProt P37288)
[1] = target: T1, Cholecystokinin receptor type A (Homo sapiens, UniProt P32238)
T1 sequence (P32238 whole entry): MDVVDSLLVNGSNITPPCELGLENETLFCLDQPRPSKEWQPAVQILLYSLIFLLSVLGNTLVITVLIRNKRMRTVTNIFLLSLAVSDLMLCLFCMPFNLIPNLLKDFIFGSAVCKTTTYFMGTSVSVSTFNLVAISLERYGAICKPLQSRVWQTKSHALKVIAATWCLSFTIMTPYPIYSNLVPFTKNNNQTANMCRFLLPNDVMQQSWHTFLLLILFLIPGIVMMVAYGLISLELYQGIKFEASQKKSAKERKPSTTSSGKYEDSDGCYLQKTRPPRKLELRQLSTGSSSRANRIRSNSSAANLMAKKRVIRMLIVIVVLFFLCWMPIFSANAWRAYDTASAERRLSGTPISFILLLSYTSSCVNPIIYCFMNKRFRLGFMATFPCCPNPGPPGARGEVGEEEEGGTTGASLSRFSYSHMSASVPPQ

[2] = target: Gamma-aminobutyric acid receptor subunit alpha-1 (Rattus norvegicus, UniProt P62813)
Sequence of Gamma-aminobutyric acid receptor subunit alpha-1 (P62813 whole entry): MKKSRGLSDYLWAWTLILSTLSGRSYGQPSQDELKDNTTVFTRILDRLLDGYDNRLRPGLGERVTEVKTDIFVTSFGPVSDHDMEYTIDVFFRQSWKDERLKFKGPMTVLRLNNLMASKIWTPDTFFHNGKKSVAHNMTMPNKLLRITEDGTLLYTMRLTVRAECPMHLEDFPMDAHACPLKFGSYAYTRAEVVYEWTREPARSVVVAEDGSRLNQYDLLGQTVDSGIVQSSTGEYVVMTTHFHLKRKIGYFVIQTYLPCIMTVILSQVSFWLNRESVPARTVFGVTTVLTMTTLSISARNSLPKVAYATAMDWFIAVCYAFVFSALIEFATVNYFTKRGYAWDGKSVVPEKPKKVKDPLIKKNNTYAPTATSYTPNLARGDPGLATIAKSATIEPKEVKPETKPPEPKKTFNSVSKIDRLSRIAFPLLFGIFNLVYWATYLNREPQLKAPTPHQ

[3] = target: Growth hormone secretagogue receptor type 1 (Homo sapiens, UniProt Q92847)
Sequence of Growth hormone secretagogue receptor type 1 (Q92847 whole entry): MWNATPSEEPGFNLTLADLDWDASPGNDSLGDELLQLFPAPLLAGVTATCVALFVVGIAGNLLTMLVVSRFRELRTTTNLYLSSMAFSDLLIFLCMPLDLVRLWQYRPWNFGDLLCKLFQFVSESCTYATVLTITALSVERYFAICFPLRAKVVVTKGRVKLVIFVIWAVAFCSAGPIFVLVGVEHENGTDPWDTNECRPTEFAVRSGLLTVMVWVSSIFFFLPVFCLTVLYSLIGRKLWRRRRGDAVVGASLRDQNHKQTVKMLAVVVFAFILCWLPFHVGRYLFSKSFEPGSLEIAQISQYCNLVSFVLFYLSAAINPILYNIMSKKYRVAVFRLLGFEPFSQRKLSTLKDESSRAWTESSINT

[4] = target: 5-hydroxytryptamine receptor 2B (Homo sapiens, UniProt P41595); assay type: functional, cell-based
Sequence of 5-hydroxytryptamine receptor 2B (P41595 whole entry): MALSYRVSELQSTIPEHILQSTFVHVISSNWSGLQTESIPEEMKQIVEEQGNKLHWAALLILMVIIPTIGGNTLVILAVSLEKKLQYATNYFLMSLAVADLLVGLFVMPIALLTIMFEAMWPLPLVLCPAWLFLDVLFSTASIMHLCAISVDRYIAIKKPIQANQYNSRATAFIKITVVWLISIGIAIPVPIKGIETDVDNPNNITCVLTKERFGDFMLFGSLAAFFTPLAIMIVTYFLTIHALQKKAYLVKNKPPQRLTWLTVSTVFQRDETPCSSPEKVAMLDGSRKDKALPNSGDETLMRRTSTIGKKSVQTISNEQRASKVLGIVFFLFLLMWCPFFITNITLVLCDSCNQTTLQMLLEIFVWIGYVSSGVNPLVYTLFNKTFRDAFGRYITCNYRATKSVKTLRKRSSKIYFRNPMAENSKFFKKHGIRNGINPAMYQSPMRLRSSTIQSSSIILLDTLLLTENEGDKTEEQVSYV

[5] = target: T2, 5-hydroxytryptamine receptor 2C (Homo sapiens, UniProt P28335)
T2 sequence (P28335 whole entry): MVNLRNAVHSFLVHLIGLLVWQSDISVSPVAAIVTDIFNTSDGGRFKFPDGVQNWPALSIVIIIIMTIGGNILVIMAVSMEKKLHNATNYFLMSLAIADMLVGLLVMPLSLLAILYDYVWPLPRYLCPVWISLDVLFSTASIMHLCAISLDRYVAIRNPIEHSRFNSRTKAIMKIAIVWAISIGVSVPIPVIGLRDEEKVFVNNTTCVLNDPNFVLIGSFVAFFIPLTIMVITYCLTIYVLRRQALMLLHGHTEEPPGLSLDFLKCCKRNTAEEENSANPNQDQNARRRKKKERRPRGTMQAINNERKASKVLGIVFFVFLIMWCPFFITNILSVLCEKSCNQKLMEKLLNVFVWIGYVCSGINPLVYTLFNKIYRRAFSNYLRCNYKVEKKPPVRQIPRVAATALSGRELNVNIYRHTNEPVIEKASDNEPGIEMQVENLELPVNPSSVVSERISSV

[6] = target: T3, 5-hydroxytryptamine receptor 3A (Homo sapiens, UniProt P46098); assay type: functional
T3 sequence (P46098 whole entry): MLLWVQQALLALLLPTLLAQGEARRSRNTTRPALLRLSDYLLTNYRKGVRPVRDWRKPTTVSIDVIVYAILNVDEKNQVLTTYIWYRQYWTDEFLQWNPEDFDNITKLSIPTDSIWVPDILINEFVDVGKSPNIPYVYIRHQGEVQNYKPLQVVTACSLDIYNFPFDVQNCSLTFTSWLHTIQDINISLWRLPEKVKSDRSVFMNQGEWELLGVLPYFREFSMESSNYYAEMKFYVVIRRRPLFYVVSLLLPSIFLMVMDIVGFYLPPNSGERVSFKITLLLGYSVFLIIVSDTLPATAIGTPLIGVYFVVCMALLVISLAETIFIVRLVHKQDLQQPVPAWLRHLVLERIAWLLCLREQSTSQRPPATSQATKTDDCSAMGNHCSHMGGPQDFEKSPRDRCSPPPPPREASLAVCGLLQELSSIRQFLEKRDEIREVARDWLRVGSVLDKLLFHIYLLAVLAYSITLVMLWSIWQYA

Glucocorticoid receptor = target: T4, Glucocorticoid receptor (Homo sapiens, UniProt P04150)
T4 sequence (P04150 whole entry): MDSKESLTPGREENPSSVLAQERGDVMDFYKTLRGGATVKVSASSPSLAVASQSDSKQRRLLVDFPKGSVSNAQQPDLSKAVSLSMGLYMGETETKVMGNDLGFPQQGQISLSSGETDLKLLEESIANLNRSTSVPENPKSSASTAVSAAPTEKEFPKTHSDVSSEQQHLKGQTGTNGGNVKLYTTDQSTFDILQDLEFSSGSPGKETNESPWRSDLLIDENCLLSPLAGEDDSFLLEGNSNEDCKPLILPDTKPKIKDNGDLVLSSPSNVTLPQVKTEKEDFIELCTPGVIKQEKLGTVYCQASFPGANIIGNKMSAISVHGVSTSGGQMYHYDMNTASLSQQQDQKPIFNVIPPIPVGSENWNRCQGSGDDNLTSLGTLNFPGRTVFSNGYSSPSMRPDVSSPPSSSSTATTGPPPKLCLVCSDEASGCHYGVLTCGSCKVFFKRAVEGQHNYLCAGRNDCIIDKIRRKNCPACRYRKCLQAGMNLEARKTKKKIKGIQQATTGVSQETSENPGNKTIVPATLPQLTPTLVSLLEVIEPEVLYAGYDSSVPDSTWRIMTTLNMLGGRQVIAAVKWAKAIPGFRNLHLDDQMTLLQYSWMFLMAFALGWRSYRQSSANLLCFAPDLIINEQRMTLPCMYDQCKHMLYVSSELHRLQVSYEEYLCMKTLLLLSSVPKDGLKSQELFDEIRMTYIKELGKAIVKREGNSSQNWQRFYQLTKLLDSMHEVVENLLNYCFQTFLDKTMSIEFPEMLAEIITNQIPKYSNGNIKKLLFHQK

Thromboxane A2 receptor = target: T5, Thromboxane A2 receptor (Homo sapiens, UniProt P21731)
T5 sequence (P21731 whole entry): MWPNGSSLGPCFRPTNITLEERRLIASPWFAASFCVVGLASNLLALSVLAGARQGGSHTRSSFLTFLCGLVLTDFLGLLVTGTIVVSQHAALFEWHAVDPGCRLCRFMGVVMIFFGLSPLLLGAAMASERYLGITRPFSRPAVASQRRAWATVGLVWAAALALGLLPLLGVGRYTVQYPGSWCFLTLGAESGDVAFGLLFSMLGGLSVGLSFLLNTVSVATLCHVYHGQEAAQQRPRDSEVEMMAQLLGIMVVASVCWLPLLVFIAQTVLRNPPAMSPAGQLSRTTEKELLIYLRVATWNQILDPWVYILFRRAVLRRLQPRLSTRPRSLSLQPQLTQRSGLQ

[7] = target: Sodium-dependent dopamine transporter (Homo sapiens, UniProt Q01959)
Sequence of Sodium-dependent dopamine transporter (Q01959 whole entry): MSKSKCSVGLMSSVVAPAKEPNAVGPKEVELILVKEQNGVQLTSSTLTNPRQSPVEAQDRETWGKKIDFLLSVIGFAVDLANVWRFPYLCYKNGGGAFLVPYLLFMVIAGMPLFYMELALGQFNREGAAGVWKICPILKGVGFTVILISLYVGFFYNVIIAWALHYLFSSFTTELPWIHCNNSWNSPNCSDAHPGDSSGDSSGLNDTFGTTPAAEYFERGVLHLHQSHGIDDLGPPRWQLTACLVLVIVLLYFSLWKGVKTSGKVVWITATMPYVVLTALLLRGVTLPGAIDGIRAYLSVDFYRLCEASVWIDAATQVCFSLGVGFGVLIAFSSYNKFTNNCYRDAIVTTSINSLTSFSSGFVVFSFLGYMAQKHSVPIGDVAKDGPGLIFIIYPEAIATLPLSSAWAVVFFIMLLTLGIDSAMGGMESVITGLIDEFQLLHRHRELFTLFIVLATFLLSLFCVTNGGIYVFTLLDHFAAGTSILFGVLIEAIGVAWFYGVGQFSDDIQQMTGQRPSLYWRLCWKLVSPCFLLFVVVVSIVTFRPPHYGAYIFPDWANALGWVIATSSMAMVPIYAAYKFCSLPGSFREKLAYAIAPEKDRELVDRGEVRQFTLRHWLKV

[8] = target: Sodium-dependent noradrenaline transporter (Homo sapiens, UniProt P23975)
Sequence of Sodium-dependent noradrenaline transporter (P23975 whole entry): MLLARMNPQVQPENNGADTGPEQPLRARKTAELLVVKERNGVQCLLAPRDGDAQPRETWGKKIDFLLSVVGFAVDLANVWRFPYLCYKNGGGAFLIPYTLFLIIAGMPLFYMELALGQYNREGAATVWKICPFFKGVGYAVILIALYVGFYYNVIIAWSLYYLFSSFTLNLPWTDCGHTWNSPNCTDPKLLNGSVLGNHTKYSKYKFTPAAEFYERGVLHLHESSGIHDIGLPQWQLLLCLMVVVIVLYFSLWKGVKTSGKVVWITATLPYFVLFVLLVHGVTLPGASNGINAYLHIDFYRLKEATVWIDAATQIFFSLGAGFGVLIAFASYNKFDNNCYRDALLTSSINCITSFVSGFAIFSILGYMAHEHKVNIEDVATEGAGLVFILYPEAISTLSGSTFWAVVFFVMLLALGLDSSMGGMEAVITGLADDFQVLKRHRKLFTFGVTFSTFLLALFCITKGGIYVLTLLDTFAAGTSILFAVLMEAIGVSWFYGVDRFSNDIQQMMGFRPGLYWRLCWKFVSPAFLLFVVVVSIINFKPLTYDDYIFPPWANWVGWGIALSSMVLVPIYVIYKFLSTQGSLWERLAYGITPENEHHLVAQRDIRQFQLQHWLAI

[9] = target: cGMP-inhibited 3',5'-cyclic phosphodiesterase 3A (Homo sapiens, UniProt Q14432); assay type: functional
Sequence of cGMP-inhibited 3',5'-cyclic phosphodiesterase 3A (Q14432 whole entry): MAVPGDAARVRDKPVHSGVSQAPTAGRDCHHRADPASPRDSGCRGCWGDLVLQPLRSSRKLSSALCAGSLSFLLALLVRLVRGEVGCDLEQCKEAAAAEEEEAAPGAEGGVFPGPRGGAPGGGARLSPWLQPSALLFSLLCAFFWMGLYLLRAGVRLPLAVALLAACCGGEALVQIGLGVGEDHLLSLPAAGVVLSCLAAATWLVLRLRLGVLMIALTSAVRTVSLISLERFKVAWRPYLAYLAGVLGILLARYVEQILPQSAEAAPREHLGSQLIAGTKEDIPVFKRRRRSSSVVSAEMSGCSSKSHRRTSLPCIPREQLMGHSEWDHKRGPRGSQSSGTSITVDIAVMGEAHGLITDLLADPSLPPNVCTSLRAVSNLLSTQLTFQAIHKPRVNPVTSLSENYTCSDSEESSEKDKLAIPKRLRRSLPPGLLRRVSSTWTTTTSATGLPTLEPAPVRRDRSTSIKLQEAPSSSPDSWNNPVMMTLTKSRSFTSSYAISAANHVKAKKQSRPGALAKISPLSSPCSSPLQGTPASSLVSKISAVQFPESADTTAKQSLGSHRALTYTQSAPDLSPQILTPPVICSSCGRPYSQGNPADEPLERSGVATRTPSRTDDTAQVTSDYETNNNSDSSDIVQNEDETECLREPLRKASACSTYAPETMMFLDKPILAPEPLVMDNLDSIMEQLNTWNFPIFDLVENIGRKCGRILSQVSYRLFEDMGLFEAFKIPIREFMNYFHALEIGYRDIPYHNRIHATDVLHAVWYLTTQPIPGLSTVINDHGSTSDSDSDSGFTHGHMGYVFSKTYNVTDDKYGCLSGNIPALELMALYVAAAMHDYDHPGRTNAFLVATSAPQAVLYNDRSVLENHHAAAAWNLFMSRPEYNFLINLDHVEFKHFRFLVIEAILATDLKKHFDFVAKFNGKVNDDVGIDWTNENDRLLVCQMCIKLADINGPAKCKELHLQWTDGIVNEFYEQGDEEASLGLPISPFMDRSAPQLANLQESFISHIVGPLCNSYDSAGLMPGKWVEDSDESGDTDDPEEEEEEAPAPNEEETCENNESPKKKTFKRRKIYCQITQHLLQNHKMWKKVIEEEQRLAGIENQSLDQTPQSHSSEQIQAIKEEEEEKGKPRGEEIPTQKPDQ

Histamine H3 receptor = Histamine H3 receptor (Homo sapiens, UniProt Q9Y5N1)
Sequence of Histamine H3 receptor (Q9Y5N1 whole entry): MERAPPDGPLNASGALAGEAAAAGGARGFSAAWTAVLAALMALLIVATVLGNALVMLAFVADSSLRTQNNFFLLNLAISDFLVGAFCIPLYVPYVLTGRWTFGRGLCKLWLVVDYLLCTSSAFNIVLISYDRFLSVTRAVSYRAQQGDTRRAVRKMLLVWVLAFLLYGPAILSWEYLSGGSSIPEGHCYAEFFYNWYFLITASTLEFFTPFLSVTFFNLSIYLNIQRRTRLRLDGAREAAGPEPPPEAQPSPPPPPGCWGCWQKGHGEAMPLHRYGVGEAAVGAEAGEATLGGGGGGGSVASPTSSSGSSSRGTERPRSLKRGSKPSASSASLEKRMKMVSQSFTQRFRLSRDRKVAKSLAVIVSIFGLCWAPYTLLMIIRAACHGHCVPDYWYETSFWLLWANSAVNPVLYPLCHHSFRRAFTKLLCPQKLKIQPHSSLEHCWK
Note: assay procedure not described here.

Sequence of Vasopressin V1a receptor (P37288 whole entry): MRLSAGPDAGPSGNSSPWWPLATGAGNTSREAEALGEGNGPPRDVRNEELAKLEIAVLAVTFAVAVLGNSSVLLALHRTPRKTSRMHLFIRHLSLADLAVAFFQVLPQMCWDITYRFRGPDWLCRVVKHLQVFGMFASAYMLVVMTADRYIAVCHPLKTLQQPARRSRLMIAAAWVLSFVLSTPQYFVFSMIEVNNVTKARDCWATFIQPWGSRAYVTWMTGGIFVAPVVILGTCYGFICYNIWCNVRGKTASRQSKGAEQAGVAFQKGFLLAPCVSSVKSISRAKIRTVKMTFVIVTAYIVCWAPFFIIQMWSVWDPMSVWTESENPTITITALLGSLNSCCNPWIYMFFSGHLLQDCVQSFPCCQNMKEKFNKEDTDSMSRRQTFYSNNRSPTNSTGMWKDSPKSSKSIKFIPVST

`O=C1CC[C@@H](C(=O)N2CSC[C@H]2C(=O)O)N1` [PIDOTIMOD] ([pGlu]-[Thz]-OH) was tested, and the AC50 (Vasopressin V1a receptor) was over 30 µM, the AC50 [1] was over 30 µM and the AC50 [2] was over 30 µM. The AC50 [3] was over 30 µM, the AC50 [4] was over 30 µM and the AC50 [5] was over 30 µM. It also gave an AC50 [6] of over 30 µM, an AC50 (Glucocorticoid receptor) of over 30 µM and an AC50 (Thromboxane A2 receptor) of over 30 µM. The AC50 [7] was over 30 µM, the AC50 [8] was over 30 µM and the AC50 [9] was over 30 µM. For the same molecule, the AC50 (Histamine H3 receptor) was over 30 µM.

For `CCC(NC(C)C)C(O)c1ccc(O)c2[nH]c(=O)ccc12` (stereo unspecified) [PROCATEROL], the AC50 (Vasopressin V1a receptor) was over 30 µM, the AC50 [1] was over 30 µM and the AC50 [2] was over 30 µM. The AC50 [3] was over 30 µM, the AC50 [4] was over 30 µM and the AC50 [5] was over 30 µM. It also gave an AC50 [6] of over 30 µM, an AC50 (Glucocorticoid receptor) of over 30 µM and an AC50 (Thromboxane A2 receptor) of over 30 µM. For the same molecule, the AC50 [7] was over 30 µM, the AC50 [8] was over 30 µM and the AC50 [9] was over 30 µM. The AC50 (Histamine H3 receptor) was over 30 µM.

With `C=CC[N+]1([C@H]2C[C@H]3[C@@H]4CC[C@H]5C[C@H](O)[C@@H](N6CCOCC6)C[C@]5(C)[C@H]4CC[C@]3(C)[C@H]2OC(C)=O)CCCC1` [ROCURONIUM] the AC50 (Vasopressin V1a receptor) was over 30 µM, the AC50 [1] was over 30 µM and the AC50 [2] was over 30 µM. The AC50 [3] was over 30 µM, the AC50 [4] was over 30 µM and the AC50 [5] was over 30 µM. The AC50 [6] was over 30 µM, the AC50 (Glucocorticoid receptor) was over 30 µM and the AC50 (Thromboxane A2 receptor) was over 30 µM. For the same molecule, the AC50 [7] was over 30 µM, the AC50 [8] was over 30 µM and the AC50 [9] was over 30 µM. It also gave an AC50 (Histamine H3 receptor) of over 30 µM.

`CCN1CCCC1CNC(=O)c1cc(S(=O)(=O)CC)ccc1OC` (stereo unspecified) [SULTOPRIDE] showed an AC50 (Vasopressin V1a receptor) of over 30 µM, an AC50 [1] of over 30 µM and an AC50 [2] of over 30 µM. The AC50 [3] was over 30 µM, the AC50 [4] was 1.3 µM and the AC50 [5] was over 30 µM. The AC50 [6] was over 30 µM, the AC50 (Glucocorticoid receptor) was over 30 µM and the AC50 (Thromboxane A2 receptor) was over 30 µM. The AC50 [7] was over 30 µM, the AC50 [8] was over 30 µM and the AC50 [9] was over 30 µM. For the same molecule, the AC50 (Histamine H3 receptor) was 22 µM.

With `C=CCN1CCc2nc(N)sc2CC1` [TALIPEXOLE] the AC50 (Vasopressin V1a receptor) was over 30 µM, the AC50 [1] was over 30 µM and the AC50 [2] was over 30 µM. The AC50 [3] was over 30 µM, the AC50 [4] was over 30 µM and the AC50 [5] was over 30 µM. For the same molecule, the AC50 [6] was over 30 µM, the AC50 (Glucocorticoid receptor) was over 30 µM and the AC50 (Thromboxane A2 receptor) was over 30 µM. For the same molecule, the AC50 [7] was over 30 µM, the AC50 [8] was over 30 µM and the AC50 [9] was over 30 µM. The AC50 (Histamine H3 receptor) was 3.3 µM.

With `Cn1c(=O)c2c(ncn2CCOC(=O)C(C)(C)Oc2ccc(Cl)cc2)n(C)c1=O` [THEOFIBRATE] the AC50 (Vasopressin V1a receptor) was over 30 µM, the AC50 [1] was over 30 µM and the AC50 [2] was over 30 µM. The AC50 [3] was over 30 µM, the AC50 [4] was over 30 µM and the AC50 [5] was over 30 µM. It also gave an AC50 [6] of over 30 µM, an AC50 (Glucocorticoid receptor) of over 30 µM and an AC50 (Thromboxane A2 receptor) of over 30 µM. It also gave an AC50 [7] of over 30 µM, an AC50 [8] of over 30 µM and an AC50 [9] of over 30 µM. The AC50 (Histamine H3 receptor) was over 30 µM.

For `CC(C)(C)NCC(O)c1ccccc1Cl` (stereo unspecified) [TULOBUTEROL], the AC50 (Vasopressin V1a receptor) was over 30 µM, the AC50 [1] was over 30 µM and the AC50 [2] was over 30 µM. The AC50 [3] was over 30 µM, the AC50 [4] was over 30 µM and the AC50 [5] was over 30 µM. The AC50 [6] was over 30 µM, the AC50 (Glucocorticoid receptor) was over 30 µM and the AC50 (Thromboxane A2 receptor) was over 30 µM. It also gave an AC50 [7] of over 30 µM, an AC50 [8] of over 30 µM and an AC50 [9] of over 30 µM. For the same molecule, the AC50 (Histamine H3 receptor) was over 30 µM.
